# According to patent US20200093801A1, “NEW METHODS FOR THE TREATMENT OF MULTIPLE SCLEROSIS” (Novartis AG, priority 2017, published 2020):
# “Also recorded” adds a separate entry of the source.
# Experiments:
# MOG Peptide-Induced EAE = experiment: MOG peptide-induced EAE; type: in vivo, Mice (C57BL/6J OlaHsd); settings: 100 and 150 mg/kg p.o. qd, day 14 to day 28 post-immunization; compared to vehicle
# Procedure: Mice (C57BL/6J OlaHsd) were commercially purchased from Harlan Laboratories BV (9 weeks old, females). All the animals were allowed to adapt for 7 days prior the start of the experiment and housed in IVC racks (max. 4 mice/XJ Type cage). The animals were given access to food and water ad libitum. Mice were immunized at with subcutaneous injection on the lower back of myelin oligodendrocyte glycoprotein peptide ([…]; in house produced; 200 μg/100 emulsified in 4 mg/ml complete Freund adjuvant (CFA, Sigma). Pertussis toxin (Fluka; 200 ng per mouse) was administered intraperitoneally on day 0 and day 2. Evaluation of EAE: The mice were observed and weighed daily. They were assessed for clinical signs on a scale from 0 to 5, with graduations of 0.5 for intermediate scores. 0: no clinical signs, 1: Limp tail/complete loss of tail tonus; 2: Clear hind limb weakness; 3: Complete bilateral hind limb paralysis; 4: Fore limbs and hind limbs paralysis; 5: Death. Supplementary food and gel food were provided inside the cage once first clinical signs appeared. Animals were treated for 14 days with 100 and 150 mg/kg of BLZ945, qd, p.o. 10 ml/kg from day 14 to day 28 post-immunization. BLZ945 was prepared in 0.5% methylcellulose in water and 0.1% Tween-80.
# [1] = tested on: Cuprizone-Induced Demyelination in Mice; experiment: Cuprizone-induced demyelination in mice at 20 mg/kg and 60 mg/kg, MRI; type: in vivo, Mice (C57BL/6J)
# Excerpt: Studies described below were approved by the Swiss Cantonal Veterinary Authority of Basel City, Switzerland, under the license number 2711. Mice (C57BL/6J) were commercially purchased from Charles River Laboratories, Germany or obtained from Novartis Pharma AG breeding colonies (8-9 weeks old, females). All the animals were allowed to adapt for 7 days prior the start of the experiment and housed in IVC racks (max. 4 mice/XJ Type cage). The animals were given access to food and water ad libitum. Animals were treated with cuprizone for 5 weeks. Cuprizone (Bis(cyclohexanone)oxaldihydrazone, Sigma-Aldrich) was mixed into rodent food pellets (0.2% w/w) by Provimi Kliba AG, Switzerland. Therapeutic treatment of animals after cuprizone was performed for 2 weeks on normal food with 20 and 60 mg/kg of BLZ945, qd, p.o. 10 ml/kg. BLZ945 was prepared in vehicle consisting of 0.5% methylcellulose in water and 0.1% Tween-80. Before killing 3 h after last BLZ945 dosing animals were perfused transcardially by phosphate-buffered saline (PBS), brains isolated and fixed in 4% paraformaldehyde (PFA) for 48 h at 4° C.
# Measurements were performed with a Biospec 70/30 spectrometer (Bruker Medical Systems, Ettlingen, Germany) operating at 7 T. The operational software of the scanner was Paravision 5.1 (Bruker). Images were acquired from anesthetized, spontaneously breathing animals using a mouse brain circularly polarized coil (Bruker, Model 1P T20063V3; internal diameter 23 mm) for radiofrequency excitation and detection; neither cardiac nor respiratory triggering was applied. Following a short period of introduction in a box, animals were maintained in anesthesia with 1.5% isoflurane (Abbott, Cham, Switzerland) in oxygen, administered via a nose cone. During MRI signal acquisitions, animals were placed in prone position in a cradle made of Plexiglas, the body temperature was kept at 37±1° C. using a heating pad, and the respiration was monitored.
# A T2-weighted, two-dimensional multislice RARE (Rapid Acquisition with Relaxation Enhancement) sequence (Hennig et al., 1986) was used for determining the anatomical orientation and for evaluating signal intensities. This was followed by a two-dimensional multislice gradient-recalled FLASH (Fast Low-Angle Shot) acquisition (Haase et al., 1986) for assessment of MTR. As both sequences had the same anatomical parameters, the choice of the regions-of-interest for evaluations was performed on the RARE images and then transferred to the FLASH images. The parameters of the acquisitions were the following: (a) RARE sequence: effective echo time 80 ms, repetition time 3280 ms, RARE factor 16, 12 averages, field of view 20×18 mm^2, matrix size 213×192, pixel size 0.094×0.094 mm^2, slice thickness 0.5 mm, 15 adjacent slices. Hermite pulses of duration/bandwidth 1 ms/5400 Hz and 0.64 ms/5344 Hz were used for radiofrequency excitation and refocusing, respectively. Fat suppression was achieved by a gauss512 pulse of 2.61 ms/1051 Hz duration/bandwidth followed by a 2-ms-long gradient spoiler. The total acquisition time was of 7 min 52.3 s; (b) FLASH sequence: echo time 2.8 ms, repetition time 252.8 ms, 4 averages, field of view 20×18 mm^2, matrix size 213×192, pixel size 0.094×0.094 mm^2, slice thickness 0.5 mm, 15 adjacent slices. A hermite pulse of 0.9 ms/6000 Hz duration/bandwidth and flipangle 30° was used for radiofrequency excitation. MTR contrast was introduced by a gauss pulse of 15 ms/182.7 Hz duration/bandwidth applied with a radiofrequency peak amplitude of 7.5 μT and an irradiation offset of 2500 Hz. The acquisition was then repeated with the same parameters but without the introduction of the MTR contrast. MTR was then computed using the formula MTR=(S0−SMTR)/S0, where S0 and SMTR represent respectively the signal intensities in the FLASH acquisitions without and with the introduction of the MTR contrast. The total acquisition time for both data sets was of 6 min 31.6 seconds.
# [2] = 60 mg/kg p.o. qd, therapeutic mode after 5 weeks cuprizone
# [3] = 20 and 60 mg/kg p.o. qd, 2-week therapeutic treatment after 5 weeks 0.2% cuprizone, FIG. 9 legend
structure (smiles),measurement,setting,value
"CNC(=O)c1cc(Oc2ccc3nc(N[C@@H]4CCCC[C@H]4O)sc3c2)ccn1 [BLZ945, 4-(2-((1R,2R)-2-hydroxycyclohexylamino)benzothiazol-6-yloxy)-N-methylpicolinamide]",EAE clinical score / disease progression,MOG Peptide-Induced EAE,did not alter disease progression; also recorded: No difference
same,EAE disease onset/incidences,MOG Peptide-Induced EAE,similar
same,Weight change in EAE mice,MOG Peptide-Induced EAE,similar
same,"Remyelination by MRI, corpus callosum/external capsule",[1]; [2],significantly enhanced remyelination
same,"Remyelination by MRI, cortex",[1]; [2],significantly enhanced remyelination
same,"Remyelination by MRI, striatum",[1]; [2],only a trend
same,MRI contrast in corpus callosum,[1]; [3],not corpus callosum
same,MRI contrast in cortex,[1]; [3],reduces MRI contrast
same,MRI contrast in striatum,[1]; [3],reduces MRI contrast
same,Remyelination as detected by MRI,"[1]; lower doses (20 and 60 mg/kg), short-term treatment for only 1 week, 5-week cuprizone model",beneficial effects on remyelination
